The target of test [1] is T1, human indoleamine 2,3-dioxygenase 1 (hIDO1) (Homo sapiens, UniProt P14902).
T1 construct: His tag (N); purchased BPS Bioscience, San Diego, Calif., USA; host or cells: E. coli
Briefly: In-vitro human indoleamine 2,3-dioxygenase 1 (IDO1) enzyme assay. To be noted: for inhibition at 1 µM: hIDO1 enzyme at 1.0 μM concentration; for inhibition at 10 µM: hIDO1 enzyme at 10.0 μM concentration; for IC50: hIDO1 enzyme. It counts as biochemical. The gist of the method: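 His-tagged hIDO1 (E. coli, 50 ng) incubated with 80 μM tryptophan, 10 mM ascorbate, 10 μM methylene blue, catalase and 0.01% Tween-20 in 50 mM sodium phosphate pH 6.5, 60 min, 37 °C. Piperidine converts N-formylkynurenine to fluorescent NFK-PIP (ex 400/em 500 nm); IC50 by nonlinear regression.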

For test [2], the target named is T2, human tryptophan 2,3-dioxygenase (hTDO) (Homo sapiens, UniProt P48775).
T2 construct: His tag (N); purchased BPS Bioscience, San Diego, Calif., USA; host or cells: E. coli
T2 sequence (P48775 whole entry): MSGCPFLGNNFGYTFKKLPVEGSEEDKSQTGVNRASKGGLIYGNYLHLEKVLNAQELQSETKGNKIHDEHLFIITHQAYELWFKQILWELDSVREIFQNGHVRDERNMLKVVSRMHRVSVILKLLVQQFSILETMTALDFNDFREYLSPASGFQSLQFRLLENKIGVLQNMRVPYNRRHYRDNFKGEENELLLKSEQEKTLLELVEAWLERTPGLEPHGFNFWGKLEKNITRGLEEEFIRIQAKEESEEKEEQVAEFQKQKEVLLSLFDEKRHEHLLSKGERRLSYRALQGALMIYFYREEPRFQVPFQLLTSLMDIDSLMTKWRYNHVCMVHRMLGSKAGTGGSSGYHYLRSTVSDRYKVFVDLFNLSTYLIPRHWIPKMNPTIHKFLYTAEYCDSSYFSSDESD
Briefly: In-vitro human tryptophan 2,3-dioxygenase (TDO) enzyme assay. It counts as biochemical. As to conditions: for inhibition at 1 µM: hTDO enzyme at 1.0 μM concentration; for inhibition at 10 µM: hTDO enzyme at 10.0 μM concentration. The gist of the method:
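N-His-tagged hTDO expressed in E. coli (125 ng) incubated with 200 μM L-tryptophan, 100 mM sodium phosphate pH 7.0, 0.01% Tween-20, 100 μM ascorbate, 60 min at 37 °C. Product converted with 200 mM piperidine (65 °C, 20 min) to NFK-PIP, fluorescence 400/500 nm; IC50 by nonlinear regression.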

Where only a bound is given, the exact number is not on record here.

T1 sequence (P14902 whole entry): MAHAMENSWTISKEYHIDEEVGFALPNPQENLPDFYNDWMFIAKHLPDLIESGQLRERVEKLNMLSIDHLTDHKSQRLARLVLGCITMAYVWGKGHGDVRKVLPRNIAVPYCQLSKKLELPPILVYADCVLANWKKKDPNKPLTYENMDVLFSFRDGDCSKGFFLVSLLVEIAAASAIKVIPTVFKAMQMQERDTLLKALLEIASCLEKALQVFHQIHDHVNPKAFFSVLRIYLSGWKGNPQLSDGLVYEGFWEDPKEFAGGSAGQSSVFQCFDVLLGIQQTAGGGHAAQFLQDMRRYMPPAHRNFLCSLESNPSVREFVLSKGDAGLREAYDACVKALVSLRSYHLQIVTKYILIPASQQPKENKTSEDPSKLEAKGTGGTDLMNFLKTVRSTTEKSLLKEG

In test [1], `CNC(=O)C1CCC(C(=O)CC2C(c3ccccc3)=C(C)c3cncn32)CC1` (stereo not shown) [Example 135] yielded an inhibition at 1 µM of no more than 50% and an inhibition at 10 µM of no more than 50%. The inhibition at 1 µM in test [2] is no less than 50%.
In test [1], `CC1=C(c2ccccc2)C(CC(O)C2CCN(C(=O)NC3CCCCC3)CC2)n2cncc21` (stereo not shown) [Example 179] registered a half-inhibitory concentration (IC50) of less than 500 nM, an inhibition at 1 µM of no less than 50% and an inhibition at 10 µM of no less than 50%. In addition, in test [2], the inhibition at 1 µM is no more than 50%.
As to `CC1=C(c2ccccc2)C(CC(O)C2CCN(c3ccccn3)CC2)n2cncc21` (stereo not shown) [Example 188, 2-(7-methyl-6-phenyl-5H-pyrrolo[1,2-c]imidazol-5-yl)-1-(1-(pyridin-2-yl)piperidin-4-yl)ethan-1-ol], in test [1], the inhibition at 1 µM is no more than 50% and the inhibition at 10 µM was no less than 50%. For the same compound, the inhibition at 1 µM in test [2] was no more than 50%.
Consider `CC1=C(c2ccccc2)C(CC(=O)C2CCC(C(=O)Nc3ccncc3)CC2)n2cncc21` (stereo not shown) [Example 117], for which, in test [1], the concentration for half-maximal inhibition (IC50) was greater than 500 nM, the inhibition at 1 µM is no less than 50% and the inhibition at 10 µM is no less than 50%. The compound also returned an inhibition at 1 µM in test [2] of no less than 50%.
`CC1=C(c2ccccc2)C(C[C@H](O)C2CCC(C(=O)Nc3ccncc3)CC2)n2cncc21` (stereo partly shown) [Example 119]: in test [1], the 50% inhibitory concentration (IC50) was less than 500 nM, the inhibition at 1 µM was no less than 50% and the inhibition at 10 µM was no less than 50%. The compound further had an inhibition at 1 µM in test [2] of no less than 50%.
In test [1], `CC1=C(c2ccccc2)C(CC(O)C2CCC(=NO)CC2)n2cncc21` (stereo not shown) [Example 178, 4-[1-Hydroxy-2-(7-methyl-6-phenyl-5H-pyrrolo[1,2-c]imidazol-5-yl)-ethyl]-cyclohexanone oxime] yielded an IC50 of less than 500 nM, an inhibition at 1 µM of no less than 50% and an inhibition at 10 µM of no less than 50%. In addition, in test [2], the inhibition at 1 µM was no more than 50%.
On to `CC1=C(c2ccccc2)C(CC(O)C2CCC(O)CC2)n2cncc21` (stereo not shown) [Example 127], for which the inhibition at 1 µM in test [1] and in test [2] was no less than 50% throughout.
In test [1], `CC1=C(c2ccccc2)C(CC(O)C2CCN(C(=O)Cc3ccccc3F)CC2)n2cncc21` (stereo not shown) [Example 139, 2-(2-Fluorophenyl)-1-(4-(1-hydroxy-2-(7-methyl-6-phenyl-5H-pyrrolo[1,2-c]imidazol-5-yl)ethyl)piperidin-1-yl)ethan-1-one] registered a 50% inhibitory concentration (IC50) of less than 500 nM, an inhibition at 1 µM of no less than 50% and an inhibition at 10 µM of no less than 50%. In addition, the inhibition at 1 µM in test [2] was no less than 50%.
On to `CC1=C(c2ccccc2)C(C[C@H](O)C2CCC(C(=O)Nc3ccc(Cl)cc3C)CC2)n2cncc21` (stereo partly shown) [Example 120], for which, in test [1], the 50% inhibitory concentration (IC50) was less than 500 nM, the inhibition at 1 µM was no less than 50% and the inhibition at 10 µM is no less than 50%. For the same compound, the inhibition at 1 µM in test [2] was no less than 50%.
In the case of `CC1=C(c2ccccc2)C(CC(=O)c2ccc(OCc3ccccc3)cc2)n2cncc21` (stereo not shown) [Example 75, 1-(4-(benzyloxy)phenyl)-2-(7-methyl-6-phenyl-5H-pyrrolo[1,2-c]imidazol-5-yl)ethan-1-one], in test [1], the IC50 is less than 500 nM, the inhibition at 1 µM is no less than 50% and the inhibition at 10 µM is no less than 50%. The compound further yielded an inhibition at 1 µM in test [2] of no less than 50%.
With `CC1=C(c2ccccc2)C(CC(O)C2CCC(O)CC2)n2cncc21` (single isomer, unassigned) [Example 121], the inhibition at 1 µM in test [1] and in test [2] was no more than 50% each time. For the same compound, in test [1], the inhibition at 10 µM was no less than 50%.
In the case of `CC1=C(c2ccccc2)C(C[C@@H](O)C2CCCN2C(=O)c2ccccc2)n2cncc21` (stereo partly shown) [Example 116], in test [1], the inhibition at 1 µM was no more than 50% and the inhibition at 10 µM was no more than 50%. In test [2], this compound had an inhibition at 1 µM of no more than 50%.
As for `CC1=C(c2ccccc2)C(CC(O)c2ccc(F)cc2)n2cncc21` (stereo not shown) [Example 35, 1-(4-fluorophenyl)-2-(7-methyl-6-phenyl-5H-pyrrolo[1,2-c]imidazol-5-yl)ethan-1-ol], the inhibition at 1 µM in test [1] is no more than 50%; in test [2] it was no less than 50%. The same compound came in with an inhibition at 10 µM in test [1] of no less than 50%.
In test [1], `CC1=C(c2ccccc2)C(CC(=O)c2ccc(Oc3ccccc3)cc2)n2cncc21` (stereo not shown) [Example 48, 2-(7-methyl-6-phenyl-5H-pyrrolo[1,2-c]imidazol-5-yl)-1-(4-phenoxyphenyl)ethan-1-one] displayed an IC50 greater than 500 nM, an inhibition at 1 µM of no less than 50% and an inhibition at 10 µM of no less than 50%. The inhibition at 1 µM in test [2] is no less than 50%.
In the case of `CC1=C(c2ccccc2)C(CC(O)C2CCN(S(C)(=O)=O)CC2)n2cncc21` (stereo not shown) [Example 165], the inhibition at 1 µM in test [1] and in test [2] was no more than 50% throughout. Besides, in test [1], the inhibition at 10 µM was no less than 50%.
In test [1], `CC1=C(c2ccccc2)C(C[C@H](O)C2CCC(C(=O)OC(C)(C)C)CC2)n2cncc21` (stereo in doubt) [Example 185] gave a half-maximal inhibitory concentration (IC50) of less than 500 nM, an inhibition at 1 µM of no less than 50% and an inhibition at 10 µM of no less than 50%. In test [2], this compound yielded an inhibition at 1 µM of no less than 50%.
For `CC1=C(c2ccccc2)C(CC(=O)c2ccc(C)cc2)n2cncc21` (stereo not shown) [Example 27, 2-(7-Methyl-6-phenyl-5H-pyrrolo[1,2-c]imidazol-5-yl)-1-p-tolyl-ethanone], in test [1], the inhibition at 1 µM was no more than 50% and the inhibition at 10 µM was no less than 50%. Besides, in test [2], the inhibition at 1 µM is no less than 50% and the inhibition at 10 µM is no less than 50%.
As to `CC1=C(c2ccccc2)C(CC(O)C2CCN(C(=O)c3cccnc3)CC2)n2cncc21` (stereo not shown) [Example 157], in test [1], the IC50 was greater than 500 nM, the inhibition at 1 µM was no less than 50% and the inhibition at 10 µM was no less than 50%. The compound further yielded an inhibition at 1 µM in test [2] of no more than 50%.
As for `OC(CC1C(c2ccccc2)=C(c2ccccc2)c2cncn21)C1CCCCC1` (stereo not shown) [Example 103], the inhibition at 1 µM in test [1] and in test [2] was no more than 50% throughout. For the same compound, the inhibition at 10 µM in test [1] was no more than 50%.
In test [1], `COC(=O)[C@H]1CC[C@@H]([C@@H](O)CC2C(c3ccccc3)=C(C)c3cncn32)CC1` (stereo partly shown) [Example 131] showed an IC50 of less than 500 nM, an inhibition at 1 µM of no less than 50% and an inhibition at 10 µM of no less than 50%. This compound gave an inhibition at 1 µM in test [2] of no less than 50%.
In test [1], `CC1=C(c2ccccc2)C(CC(=O)C2CCC(C(=O)Nc3ccc(Cl)cc3C)CC2)n2cncc21` (stereo not shown) [Example 118] registered an inhibition at 1 µM of no less than 50% and an inhibition at 10 µM of no less than 50%. Further, the inhibition at 1 µM in test [2] was no less than 50%.
In test [1], `CC1=C(c2ccccc2)C(C[C@H](O)C2CCC(C(=O)N3CCC(O)CC3)CC2)n2cncc21` (stereo partly shown) [Example 125] yielded an inhibition at 1 µM of no less than 50% and an inhibition at 10 µM of no less than 50%. In test [2], the inhibition at 1 µM is no more than 50%.
In test [1], `CC1=C(c2ccccc2)C(CC(=O)c2ccc(F)cc2)n2cncc21` (stereo not shown) [Example 34, 1-(4-fluorophenyl)-2-(7-methyl-6-phenyl-5H-pyrrolo[1,2-c]imidazol-5-yl)ethan-1-one] gave an inhibition at 1 µM of no less than 50% and an inhibition at 10 µM of no less than 50%. In test [2], the inhibition at 1 µM is no less than 50% and the inhibition at 10 µM was no less than 50%.
In test [1], `CC1=C(c2ccccc2)C(CC(=O)c2cccc3ccccc23)n2cncc21` (stereo not shown) [Example 40, 2-(7-methyl-6-phenyl-5H-pyrrolo[1,2-c]imidazol-5-yl)-1-(naphthalen-1-yl)ethan-1-one] displayed an inhibition at 1 µM of no less than 50% and an inhibition at 10 µM of no less than 50%. In addition, the inhibition at 1 µM in test [2] was no less than 50%.
With `CC1=C(c2ccccc2)C(CC(=O)c2ccc(N3CCOCC3)cc2)n2cncc21` (stereo not shown) [Example 49, 2-(7-methyl-6-phenyl-5H-pyrrolo[1,2-c]imidazol-5-yl)-1-(4-morpholinophenyl)ethan-1-one], in test [1], the inhibition at 1 µM was no more than 50% and the inhibition at 10 µM is no less than 50%. The inhibition at 1 µM in test [2] is no less than 50%.
With `CC1=C(c2ccccc2)C(CC(O)C2CCN(C(=O)Nc3cccc(C)n3)CC2)n2cncc21` (stereo not shown) [Example 183], in test [1], the 50% inhibitory concentration (IC50) is less than 500 nM, the inhibition at 1 µM is no less than 50% and the inhibition at 10 µM was no less than 50%. The inhibition at 1 µM in test [2] was no more than 50%.
In test [1], `CC1=C(c2ccccc2)C(CC(=O)C23CC4CC(CC(C4)C2)C3)n2cncc21` (stereo not shown) [Example 107] showed an inhibition at 1 µM of no more than 50% and an inhibition at 10 µM of no less than 50%. The compound further displayed an inhibition at 1 µM in test [2] of no less than 50%.

In general, inhibition refers to the drop in the measured response relative to a control, in per cent. Read a low inhibition as little suppression. A word on the IC50: it is the concentration that gives 50% inhibition.

(Values after US20190031665A1, “DERIVATIVES OF PYRROLOIMIDAZOLE OR ANALOGUES THEREOF WHICH ARE USEFUL FOR THE TREATMENT OF INTER ALIA CANCER” (EMCURE PHARMACEUTICALS LIMITED, priority 2016, published 2019).)
